Like-named read-outs stand apart in the source and are kept apart here.
Columns and labels:
GAA [1] = assay: rhGAA activity in WBC (PBMCs) of Pompe patients; assay type: in vivo, human
Text: GAA activity in WBCs will be determined in blood samples by a validated assay measuring enzyme activity using 4-MUG, with and without Con A. GAA protein levels will be measured by Western blotting using anti-human GAA antibody.

[2] = Banati et al. 2011, cited from earlier work
[3] = AT2220 concentration in muscle biopsies by LC-MS/MS in Pompe patients; assay type: in vivo, human; conditions: for muscle concentrations from Day 3 or Day 7 biopsies: 50 mg and 100 mg, lower limit of quantitation 8 ng/g; for concentration at 7 day / concentration at 3 day: human, muscle, oral, read-out: Muscle AT2220 Conc
Text: GAA enzyme activity will be examined in muscle biopsy samples. One piece of muscle tissue will be removed as described in Table 1. GAA activity in muscle will be determined by a validated assay measuring enzyme activity using 4-MUG, with and without Con A. GAA protein levels will be measured by Western blotting using anti-human GAA antibody. 1-deoxynojirimycin hydrochloride concentrations in muscle samples collected in Period 2 will be determined using a validated LC-MS/MS assay.

glycogen (GAA substrate) = assay: Tissue glycogen levels in GAA knock-out mice after repeat rhGAA with chaperone; assay type: in vivo, mouse; conditions: 21 days after last injection
Protocol: Twelve week old GAA KO mice were administered recombinant human GAA (Myozyme) 20 mg/kg i.v. every other week for 8 weeks. […]
Repeat rhGAA administration studies were conducted in GAA knock-out mice to assess effects on tissue glycogen levels.
Twelve week old GAA KO mice were administered 20 mg/kg i.v. recombinant human GAA (Myozyme) every other week for 8 weeks. […] Tissues were collected 21 days after the last dose of rhGAA and the level of glycogen (GAA substrate) was measured.

[4] = Plasma and tissue distribution of 1-DNJ and N-butyl-DNJ in wild type C57BL/6 mice; conditions: mouse, in vivo, oral 100 mg/kg
Protocol: Eight-week old wild type C57BL/6 mice where administered an oral dose of 100 mg/kg of 1-DNJ or N-butyl-DNJ. […] The concentration of drug in plasma is expressed as ng/ml. The concentration of drug in tissue samples is expressed as ng/g.

[5] = tested on: T cells derived from blood from 50 healthy donors; assay: Ex vivo T cell immunogenicity (EpiScreen assay); assay type: cell-based, human; conditions: T cells from 50 healthy donors, addition of AT2220
Text: By stabilizing the folded and active form of the rhGAA enzyme, AT2220 may mitigate ERT-induced immunogenicity since unfolded and aggregated proteins are generally more antigenic than properly folded proteins. […] The studies utilized Antitope Ltd.'s EpiScreen™ assay and are being repeated in samples from the Pompe patients in the study described by Examples 1-3.

[6] = Cmax following 30 mg/kg oral AT2220 or AT2221 in mice; assay type: in vivo; conditions: mouse, plasma
GAA [7] = target: T1, GAA (Homo sapiens, UniProt P10253); assay: Physical stability of rhGAA in neutral pH buffer (thermal denaturation, enzymatic activity); assay type: biochemical; set-up: purchased Genzyme Corporation; conditions: thermal denaturation and enzymatic activity
GAA [8] = target: T1, GAA; assay: Tissue GAA levels (activity, Western blot) in mice after rhGAA with 1-deoxynojirimycin hydrochloride; assay type: in vivo, mouse; set-up: from tissue; host or cells: heart, diaphragm, quadriceps, gastrocnemius, triceps and tongue of GAA knock-out mice injected with rhGAA; conditions: GAA knock-out mice; 10, 100 or 1000 mg/kg PO 30 min before and 8, 16, 24 h after bolus IV rhGAA 10 mg/kg weekly; 2, 4, 7 days post-administration
Text: The effect of a single oral administration of 1-deoxynojirimycin hydrochloride on rhGAA tissue uptake was studied in GAA knock-out mice.

[9] = Cohort 1 (50 mg AT2220 in Period 2), Day 2, arithmetic mean, N 4
[10] = Cohort 1 (50 mg AT2220 in Period 2), Day 7, arithmetic mean, N 4
[11] = Cohort 1 (50 mg AT2220 in Period 2), Time 0, arithmetic mean, N 4
[12] = Cohort 1 (50 mg AT2220 in Period 2), Time 4 h, arithmetic mean, N 4
[13] = Cohort 2 (100 mg AT2220 in Period 2), Day 2, arithmetic mean, N 6
[14] = Cohort 2 (100 mg AT2220 in Period 2), Day 3, arithmetic mean, N 3
[15] = Cohort 2 (100 mg AT2220 in Period 2), Day 7, arithmetic mean, N 3
[16] = Cohort 2 (100 mg AT2220 in Period 2), Time 0, arithmetic mean, N 6
[17] = Cohort 2 (100 mg AT2220 in Period 2), Time 4 h, arithmetic mean, N 6
[18] = Cohort 3 (250 mg AT2220 in Period 2), Day 2, arithmetic mean, N 6
[19] = Cohort 3 (250 mg AT2220 in Period 2), Day 3, arithmetic mean, N 3
[20] = Cohort 3 (250 mg AT2220 in Period 2), Day 7, arithmetic mean, N 3
[21] = Cohort 3 (250 mg AT2220 in Period 2), Time 0, arithmetic mean, N 6
[22] = Cohort 3 (250 mg AT2220 in Period 2), Time 4 h, arithmetic mean, N 6
[23] = co-administration with rhGAA 20 mg/kg IV every other week for 8 weeks

Molecule: rhGAA: human recombinant acid α-glucosidase; alglucosidase alfa (Myozyme/Lumizyme) enzyme replacement therapy given by intravenous infusion
- rhGAA Activity in PBMCs, % Change from Period 1 (GAA [1]; [9]): −13.9%
- rhGAA Activity in PBMCs, Period 2/Period 1 Ratio (GAA [1]; [9]): 0.9
- rhGAA Activity in PBMCs, % Change from Period 1 (GAA [1]; [10]): 4.1%
- rhGAA Activity in PBMCs, Period 2/Period 1 Ratio (GAA [1]; [10]): 1.0
- rhGAA Activity in PBMCs, % Change from Period 1 (GAA [1]; [11]): 157%
- rhGAA Activity in PBMCs, Period 2/Period 1 Ratio (GAA [1]; [11]): 2.6
- rhGAA Activity in PBMCs, % Change from Period 1 (GAA [1]; [12]): −17.5%
- rhGAA Activity in PBMCs, Period 2/Period 1 Ratio (GAA [1]; [12]): 0.8
- rhGAA Activity in PBMCs, % Change from Period 1 (GAA [1]; [13]): 81.0%
- rhGAA Activity in PBMCs, Period 2/Period 1 Ratio (GAA [1]; [13]): 1.8
- rhGAA Activity in PBMCs, % Change from Period 1 (GAA [1]; [14]): −36.7%
- rhGAA Activity in PBMCs, Period 2/Period 1 Ratio (GAA [1]; [14]): 0.6
- rhGAA Activity in PBMCs, % Change from Period 1 (GAA [1]; [15]): −5.9%
- rhGAA Activity in PBMCs, Period 2/Period 1 Ratio (GAA [1]; [15]): 0.9
- rhGAA Activity in PBMCs, % Change from Period 1 (GAA [1]; [16]): −12.4%
- rhGAA Activity in PBMCs, Period 2/Period 1 Ratio (GAA [1]; [16]): 0.9
- rhGAA Activity in PBMCs, % Change from Period 1 (GAA [1]; [17]): −8.4%
- rhGAA Activity in PBMCs, Period 2/Period 1 Ratio (GAA [1]; [17]): 0.9
- rhGAA Activity in PBMCs, % Change from Period 1 (GAA [1]; [18]): 47.5%
- rhGAA Activity in PBMCs, Period 2/Period 1 Ratio (GAA [1]; [18]): 1.5
- rhGAA Activity in PBMCs, % Change from Period 1 (GAA [1]; [19]): 240%
- rhGAA Activity in PBMCs, Period 2/Period 1 Ratio (GAA [1]; [19]): 3.4
- rhGAA Activity in PBMCs, % Change from Period 1 (GAA [1]; [20]): 49.0%
- rhGAA Activity in PBMCs, Period 2/Period 1 Ratio (GAA [1]; [20]): 1.5
- rhGAA Activity in PBMCs, % Change from Period 1 (GAA [1]; [21]): 107%
- rhGAA Activity in PBMCs, Period 2/Period 1 Ratio (GAA [1]; [21]): 2.1
- rhGAA Activity in PBMCs, % Change from Period 1 (GAA [1]; [22]): 1028%
- rhGAA Activity in PBMCs, Period 2/Period 1 Ratio (GAA [1]; [22]): 11.3
- administered ERT captured by circulating antibodies [2]: approximately 40%
- Pompe patients with infusion associated reactions ([2]; patients receiving ERT infusions): approximately 50%

Molecule: OC[C@H]1NC[C@H](O)[C@@H](O)[C@@H]1O [AT2220, (2R,3R,4R,5S)-2-hydroxymethyl-piperidine-3,4,5-triol]
- muscle concentrations from Day 3 or Day 7 biopsies [3]: either below or near the lower limit of quantitation
- muscle concentrations from Day 3 or Day 7 biopsies ([3]; listed as 1-DNJ-HCl): either below or just above the lower limit of quantification
- Muscle AT2220 Conc ([3]; Cohort 2, 100 mg AT2220, Period 2, biopsy Day 3, individual subjects, LLOQ = 8.0 ng/g (16.0 or […] for diluted samples)): BLQ^c
- muscle AT2220 concentrations ([3]; Cohort 3 (250 mg) vs lower doses, preliminary): Dose-related increases
- subjects with a quantifiable AT2220 concentration in muscle ([3]; Cohort 3 (250 mg), biopsies 3 or 7 days post dose, preliminary): 4 of 6
- Muscle AT2220 Conc ([3]; Cohort 3, 250 mg AT2220, Period 2, biopsy Day 7, individual subjects, LLOQ = 8.0 ng/g (16.0 or […] for diluted samples)): 27.9 ng/g
- Muscle AT2220 Conc ([3]; Patient D, 50 mg, Period 2, Day 7, LLOQ = 8.0 ng/g): BLQ
- Muscle AT2220 Conc ([3]; Patient F, 100 mg, Period 2, Day 7, sample diluted 2-fold, LLOQ = […]): BLQ^b
- Muscle AT2220 Conc ([3]; Patient G, 100 mg, Period 2, Day 7, LLOQ = 8.0 ng/g): BLQ
- Muscle AT2220 Conc ([3]; Patient H, 100 mg, Period 2, Day 3, sample diluted 2-fold, LLOQ = […]): BLQ^b
- Muscle AT2220 Conc ([3]; Patient I, 100 mg, Period 2, Day 7, sample diluted 2-fold, LLOQ = […]): BLQ^b
- Muscle AT2220 Conc ([3]; Patient J, 100 mg, Period 2, Day 3, sample diluted 3-fold, LLOQ = […]): BLQ^c
- clearance from muscle ([3]; all four cohorts, Day 7): cleared from muscle to near-undetectable levels by Day 7
- concentration at 7 day ([3]; 50 mg, Cohort 1, 50 mg AT2220, Period 2, biopsy Day 7, individual subjects, LLOQ = 8.0 ng/g (16.0 or […] for diluted samples)): 13.1 ng/g
- concentration at 7 day ([3]; 50 mg, Patient A, 50 mg, Period 2, Day 7, LLOQ = 8.0 ng/g): 11.8 ng/g
- concentration at 7 day ([3]; 50 mg, Patient B, 50 mg, Period 2, Day 7, LLOQ = 8.0 ng/g): 10 ng/g
- concentration at 7 day ([3]; 50 mg, Patient C, 50 mg, Period 2, Day 7, LLOQ = 8.0 ng/g): 13.1 ng/g
- concentration at 3 day ([3]; 100 mg, Cohort 2, 100 mg AT2220, Period 2, biopsy Day 3, individual subjects, LLOQ = 8.0 ng/g (16.0 or […] for diluted samples)): 17.8 ng/g
- concentration at 3 day ([3]; 100 mg, Patient E, 100 mg, Period 2, Day 3, LLOQ = 8.0 ng/g): 17.8 ng/g
- concentration at 3 day ([3]; 250 mg, Cohort 3, 250 mg AT2220, Period 2, biopsy Day 3, individual subjects, LLOQ = 8.0 ng/g (16.0 or […] for diluted samples)): 54.4 ng/g
- concentration at 7 day ([3]; 250 mg, Cohort 3, 250 mg AT2220, Period 2, biopsy Day 7, individual subjects, LLOQ = 8.0 ng/g (16.0 or […] for diluted samples)): 28.1 ng/g
- tissue glycogen levels (glycogen (GAA substrate); 10 or 30 mg/kg PO 30 min before rhGAA 20 mg/kg IV every other week for 8 weeks): dose-dependent reduction
- glycogen reduction vs rhGAA alone, biceps (glycogen (GAA substrate); [23]): ~1.4 fold
- glycogen reduction vs rhGAA alone, diaphragm (glycogen (GAA substrate); [23]): ~1.6 fold
- glycogen reduction vs rhGAA alone, gastrocnemius (glycogen (GAA substrate); [23]): ~2.7 fold
- glycogen reduction vs rhGAA alone, heart (glycogen (GAA substrate); [23]): approximately 2.3 fold
- glycogen reduction vs rhGAA alone, quadriceps (glycogen (GAA substrate); [23]): ~2.6 fold
- glycogen reduction vs rhGAA alone, soleus (glycogen (GAA substrate); [23]): ~1.2 fold
- glycogen reduction vs rhGAA alone, tongue (glycogen (GAA substrate); [23]): ~1.3 fold
- glycogen reduction vs rhGAA alone, triceps (glycogen (GAA substrate); [23]): ~2.2 fold
- Cmax [4]: 120 µM
- immunogenicity of Myozyme and Lumizyme [5]: may significantly reduce the immunogenicity
- Cmax [6]: ~40 µM
- physical stability of rhGAA (GAA [7]): significant concentration-dependent increases
- tissue GAA levels (GAA [8]): significant and dose-dependent increases
